From US11530210B2, “Substituted heteroaromatic pyrazolo-pyridines and their use as GLUN2B receptor modulators” (JANSSEN PHARMACEUTICA NV, priority 2019, dated 2022)

Biological target: T1, human GluN1/GluN2B NMDA receptors (Homo sapiens, UniProt Q13224)
T1 construct: expressed in transfected cells
Experiment: Calcium flux (FLIPR) assay on cloned human NR1/GluN2B ion channels expressed in mammalian cells (standard and HTS variants)
Assay type: cell-based
Details: cells expressing human GluN1/GluN2B, glutamate and glycine co-agonists
Method: Effects of Test Articles on Cloned Human NR1/GuN2B Ion Channels Expressed in Mammalian Cells
NMDA receptors are ion channels that are highly permeable to Ca^2+ ions, rendering it possible to monitor NMDA receptor function using cell-based calcium flux assay. In this assay, co-agonists glutamate and glycine are added to cells heterologously expressing human GluN1/GluN2B NMDA receptors to initiate cellular Ca^2+ influx. The time course of the changes in intracellular calcium is measured using a fluorescent dye and a FLIPR (Fluorometric Imaging Plate Reader) device.
Twenty-four hours before measurements, the expression of the NMDA receptors in the stable cell line is induced with Tet-On inducible system in the presence of a non-selective NMDA receptor blocker. On the day of the experiment, cell culture media is carefully washed, and the cells are loaded with Calcium 5 Dye Kit (Molecular Devices) in dye loading buffer containing 137 mM NaCl, 4 mM KCl, 2 mM CaCl2, 0.5 mM MgCl2 (standard assay) or 1.5 mM MgCl2 (HTS assay), 10 mM HEPES and 5 mM D-glucose; pH 7.4. After 1 h incubation at the room temperature, the dye is washed away with the assay buffer (137 mM NaCl (standard assay) or 150 mM (HTS assay), 4 mM KCl (standard assay) or 3 mM (HTS assay), 2 mM CaCl2), 0.01 mM EDTA, 10 mM HEPES and 5 mM D-glucose; pH 7.4) In the FLIPR TETRA reader, various concentrations of the test compounds are added to the cells for 5 min while fluorescence is monitored to detect potential agonist activity. Next, co-agonists, glutamate and glycine are added for another 5 minutes. The concentration of glutamate corresponding to ˜EC40 (standard assay) or EC40 (HTS assay) is used to maximize the assay's signal window and ability to detect NMDA receptor antagonists and negative allosteric modulators. A saturating concentration (10 μM) of glycine is also present in the assay. A non-selective NMDA receptor antagonist, (+)MK-801 is used as a positive control for antagonist activity. The fluorescent signal in the presence of test compounds is quantified and normalized to the signal defined by the appropriate control wells.

T1 sequence (Q13224 27-1484, other chains not shown): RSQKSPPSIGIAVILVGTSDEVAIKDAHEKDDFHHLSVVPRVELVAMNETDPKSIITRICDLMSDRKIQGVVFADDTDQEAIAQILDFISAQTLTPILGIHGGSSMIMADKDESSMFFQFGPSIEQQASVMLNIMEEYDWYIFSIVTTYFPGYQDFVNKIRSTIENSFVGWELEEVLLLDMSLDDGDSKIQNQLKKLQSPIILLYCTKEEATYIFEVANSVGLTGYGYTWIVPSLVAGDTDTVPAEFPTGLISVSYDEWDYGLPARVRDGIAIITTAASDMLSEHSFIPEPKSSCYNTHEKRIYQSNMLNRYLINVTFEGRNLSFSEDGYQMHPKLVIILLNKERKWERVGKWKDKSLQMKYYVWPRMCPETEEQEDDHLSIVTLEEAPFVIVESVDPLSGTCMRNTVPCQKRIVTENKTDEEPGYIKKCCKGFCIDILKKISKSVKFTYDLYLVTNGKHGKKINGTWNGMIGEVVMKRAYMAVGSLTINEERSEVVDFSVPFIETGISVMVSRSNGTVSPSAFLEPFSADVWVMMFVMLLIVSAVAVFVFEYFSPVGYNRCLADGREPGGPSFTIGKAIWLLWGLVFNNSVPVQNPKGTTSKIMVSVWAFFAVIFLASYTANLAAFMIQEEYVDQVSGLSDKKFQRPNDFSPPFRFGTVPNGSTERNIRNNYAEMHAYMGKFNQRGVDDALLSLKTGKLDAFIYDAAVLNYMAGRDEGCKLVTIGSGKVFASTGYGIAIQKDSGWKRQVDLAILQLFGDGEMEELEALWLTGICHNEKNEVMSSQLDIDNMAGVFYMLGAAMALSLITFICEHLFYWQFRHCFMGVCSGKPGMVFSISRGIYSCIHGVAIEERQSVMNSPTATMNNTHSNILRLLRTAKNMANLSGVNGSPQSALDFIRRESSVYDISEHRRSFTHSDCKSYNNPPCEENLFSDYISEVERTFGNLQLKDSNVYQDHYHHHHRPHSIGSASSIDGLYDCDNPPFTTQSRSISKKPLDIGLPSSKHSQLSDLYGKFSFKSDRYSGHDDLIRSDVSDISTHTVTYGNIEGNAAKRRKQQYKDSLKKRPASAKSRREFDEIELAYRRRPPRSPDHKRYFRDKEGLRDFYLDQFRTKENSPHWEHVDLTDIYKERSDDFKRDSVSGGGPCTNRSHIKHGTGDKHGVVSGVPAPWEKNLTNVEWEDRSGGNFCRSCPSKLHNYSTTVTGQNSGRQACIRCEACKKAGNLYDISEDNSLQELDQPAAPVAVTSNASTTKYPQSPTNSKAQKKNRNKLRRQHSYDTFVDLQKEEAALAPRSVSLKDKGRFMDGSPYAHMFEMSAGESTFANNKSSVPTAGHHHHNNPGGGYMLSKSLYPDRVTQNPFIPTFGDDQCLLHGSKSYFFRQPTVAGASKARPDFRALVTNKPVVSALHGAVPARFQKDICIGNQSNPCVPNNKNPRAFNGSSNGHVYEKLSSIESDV

IC50 [nM]	Compound
3950	Cc1cc(Cn2ncc3ncc(-c4cccc(C(F)(F)F)c4)cc32)n(C)n1 [Example 37, 1-[(2,5-Dimethylpyrazol-3-yl)methyl]-6-[3-(trifluoromethyl)phenyl]pyrazolo[4,3-b]pyridine]
226	Fc1ccc(-c2cnc3cnn(Cc4cn[nH]c4)c3c2)cc1C(F)F [Example 38, 6-[3-(Difluoromethyl)-4-fluoro-phenyl]-1-(1H-pyrazol-4-ylmethyl)pyrazolo[4,3-b]pyridine]
271	Cn1ccc(Cn2ncc3ncc(-c4ccc(F)c(C(F)F)c4)cc32)n1 [Example 39, 6-[3-(Difluoromethyl)-4-fluoro-phenyl]-1-[(1-methylpyrazol-3-yl)methyl]pyrazolo[4,3-b]pyridine]
423	FC(F)Oc1cc(-c2cnc3cnn(Cc4cn[nH]c4)c3c2)ccc1Cl [Example 41, 6-[4-Chloro-3-(difluoromethoxy)phenyl]-1-(1H-pyrazol-4-ylmethyl)pyrazolo[4,3-b]pyridine]
475	Cc1cc(Cn2ncc3ncc(-c4ccc(F)cc4)cc32)on1 [Example 42, 5-[[6-(4-Fluorophenyl)pyrazolo[4,3-b]pyridin-1-yl]methyl]-3-methyl-isoxazole]
139	Cc1cc(Cn2ncc3ncc(-c4ccc(F)cc4)cc32)no1 [Example 43, 3-[[6-(4-Fluorophenyl)pyrazolo[4,3-b]pyridin-1-yl]methyl]-5-methyl-isoxazole]
165	FC(F)(F)c1cccc(-c2cnc3cnn(Cc4ccon4)c3c2)c1 [Example 44, 3-[[6-[3-(Trifluoromethyl)phenyl]pyrazolo[4,3-b]pyridin-1-yl]methyl]isoxazole]
44	Cc1cc(Cn2ncc3ncc(-c4cccc(C(C)(F)F)c4)cc32)no1 [Example 45, 3-[[6-[3-(1,1-Difluoroethyl)phenyl]pyrazolo[4,3-b]pyridin-1-yl]methyl]-5-methyl-isoxazole]
538	FC(F)(F)c1cccc(-c2cnc3cnn(Cc4cocn4)c3c2)c1 [Example 46, 4-[[6-[3-(Trifluoromethyl)phenyl]pyrazolo[4,3-b]pyridin-1-yl]methyl]oxazole]
148	Cc1cc(Cn2ncc3ncc(-c4cccc(C(F)(F)F)c4)cc32)no1 [Example 47, 5-Methyl-3-[[6-[3-(trifluoromethyl)phenyl]pyrazolo[4,3-b]pyridin-1-yl]methyl]isoxazole]
113	Cc1ncc(Cn2ncc3ncc(-c4ccc(F)c(C)c4)cc32)o1 [Example 48, 5-[[6-(4-Fluoro-3-methyl-phenyl)pyrazolo[4,3-b]pyridin-1-yl]methyl]-2-methyl-oxazole]
53	Cc1cnc(Cn2ncc3ncc(-c4ccc(F)c(C)c4)cc32)o1 [Example 49, 2-[[6-(4-Fluoro-3-methyl-phenyl)pyrazolo[4,3-b]pyridin-1-yl]methyl]-5-methyl-oxazole]
31	Fc1ccc(-c2cnc3cnn(Cc4ccno4)c3c2)cc1C(F)F [Example 50, 5-[[6-[3-(Difluoromethyl)-4-fluoro-phenyl]pyrazolo[4,3-b]pyridin-1-yl]methyl]isoxazole]
23	Fc1ccc(-c2cnc3cnn(Cc4ccon4)c3c2)cc1C(F)F [Example 51, 3-[[6-[3-(Difluoromethyl)-4-fluoro-phenyl]pyrazolo[4,3-b]pyridin-1-yl]methyl]isoxazole]
18	Cc1cc(Cn2ncc3ncc(-c4ccc(F)c(C(F)F)c4)cc32)no1 [Example 53, 3-[[6-[3-(Difluoromethyl)-4-fluoro-phenyl]pyrazolo[4,3-b]pyridin-1-yl]methyl]-5-methyl-isoxazole]
133	Cc1ncc(Cn2ncc3ncc(-c4ccc(F)c(C(F)F)c4)cc32)o1 [Example 54, 5-[[6-[3-(Difluoromethyl)-4-fluoro-phenyl]pyrazolo[4,3-b]pyridin-1-yl]methyl]-2-methyl-oxazole]
285	Cc1nc(Cn2ncc3ncc(-c4ccc(F)c(C(F)F)c4)cc32)co1 [Example 55, 4-[[6-[3-(Difluoromethyl)-4-fluoro-phenyl]pyrazolo[4,3-b]pyridin-1-yl]methyl]-2-methyl-oxazole]
82	Cc1noc(C)c1Cn1ncc2ncc(-c3ccc(F)c(C(F)F)c3)cc21 [Example 57, 4-[[6-[3-(Difluoromethyl)-4-fluoro-phenyl]pyrazolo[4,3-b]pyridin-1-yl]methyl]-3,5-dimethyl-isoxazole]

IC50 [nM]	Compound
158	Cc1cc(Cn2ncc3ncc(-c4ccc(F)c(C(C)(F)F)c4)cc32)no1 [Example 58, 3-[[6-[3-(1,1-Difluoroethyl)-4-fluoro-phenyl]pyrazolo[4,3-b]pyridin-1-yl]methyl]-5-methyl-isoxazole]
61	Cc1cc(Cn2ncc3ncc(-c4ccc(F)c(OC(F)F)c4)cc32)no1 [Example 59, 3-[[6-[3-(Difluoromethoxy)-4-fluoro-phenyl]pyrazolo[4,3-b]pyridin-1-yl]methyl]-5-methyl-isoxazole]
559	Cc1ncc(Cn2ncc3ncc(-c4ccc(F)c(OC(F)F)c4)cc32)o1 [Example 60, 5-[[6-[3-(Difluoromethoxy)-4-fluoro-phenyl]pyrazolo[4,3-b]pyridin-1-yl]methyl]-2-methyl-oxazole]
160	Cc1cnc(Cn2ncc3ncc(-c4ccc(F)c(OC(F)F)c4)cc32)o1 [Example 61, 2-[[6-[3-(Difluoromethoxy)-4-fluoro-phenyl]pyrazolo[4,3-b]pyridin-1-yl]methyl]-5-methyl-oxazole]
159	Cc1cc(Cn2ncc3ncc(-c4ccc(Cl)c(OC(F)F)c4)cc32)no1 [Example 62, 3-[[6-[4-Chloro-3-(difluoromethoxy)phenyl]pyrazolo[4,3-b]pyridin-1-yl]methyl]-5-methyl-isoxazole]
268	Cc1ncc(Cn2ncc3ncc(-c4ccc(F)c(C)c4F)cc32)o1 [Example 63, 5-[[6-(2,4-Difluoro-3-methyl-phenyl)pyrazolo[4,3-b]pyridin-1-yl]methyl]-2-methyl-oxazole]
2240	Cc1cc(Cn2ncc3ncc(-c4cccc(C(F)(F)F)c4)cc32)ns1 [Example 64, 5-Methyl-3-[[6-[3-(trifluoromethyl)phenyl]pyrazolo[4,3-b]pyridin-1-yl]methyl]isothiazole]
84	Cc1cnc(Cn2ncc3ncc(-c4ccc(F)c(C(F)F)c4)cc32)s1 [Example 65, 2-[[6-[3-(Difluoromethyl)-4-fluoro-phenyl]pyrazolo[4,3-b]pyridin-1-yl]methyl]-5-methyl-thiazole]
410	Cc1csc(Cn2ncc3ncc(-c4ccc(F)c(C(F)F)c4)cc32)n1 [Example 66, 2-[[6-[3-(Difluoromethyl)-4-fluoro-phenyl]pyrazolo[4,3-b]pyridin-1-yl]methyl]-4-methyl-thiazole]
466	Cc1nc(Cn2ncc3ncc(-c4ccc(F)c(C(F)F)c4)cc32)cs1 [Example 67, 4-[[6-[3-(Difluoromethyl)-4-fluoro-phenyl]pyrazolo[4,3-b]pyridin-1-yl]methyl]-2-methyl-thiazole]
265	Cc1cnc(Cn2ncc3ncc(-c4ccc(F)c(C)c4)cc32)s1 [Example 68, 2-[[6-(4-Fluoro-3-methyl-phenyl)pyrazolo[4,3-b]pyridin-1-yl]methyl]-5-methyl-thiazole]
104	Cc1cnc(Cn2ncc3ncc(-c4ccc(F)c(OC(F)F)c4)cc32)s1 [Example 69, 2-[[6-[3-(Difluoromethoxy)-4-fluoro-phenyl]pyrazolo[4,3-b]pyridin-1-yl]methyl]-5-methyl-thiazole]
350	Cc1cnc(Cn2ncc3ncc(-c4ccc(F)c(C)c4F)cc32)s1 [Example 70, 2-[[6-(2,4-Difluoro-3-methyl-phenyl)pyrazolo[4,3-b]pyridin-1-yl]methyl]-5-methyl-thiazole]
891	Cn1cnc(Cn2ncc3ncc(-c4cccc(C(F)(F)F)c4)cc32)n1 [Example 71, 1-[(1-Methyl-1,2,4-triazol-3-yl)methyl]-6-[3-(trifluoromethyl)phenyl]pyrazolo[4,3-b]pyridine]
827	Cn1cc(Cn2ncc3ncc(-c4ccc(F)c(OC(F)F)c4)cc32)nn1 [Example 72, 6-[3-(Difluoromethoxy)-4-fluoro-phenyl]-1-[(1-methyltriazol-4-yl)methyl]pyrazolo[4,3-b]pyridine]
383	Cn1cnc(Cn2ncc3ncc(-c4ccc(F)c(C(F)F)c4)cc32)n1 [Example 73, 6-[3-(Difluoromethyl)-4-fluoro-phenyl]-1-[(1-methyl-1,2,4-triazol-3-yl)methyl]pyrazolo[4,3-b]pyridine]
111	Cn1cnnc1Cn1ncc2ncc(-c3ccc(F)c(C(F)F)c3)cc21 [Example 74, 6-[3-(Difluoromethyl)-4-fluoro-phenyl]-1-[(4-methyl-1,2,4-triazol-3-yl)methyl]pyrazolo[4,3-b]pyridine]
